Literature values, collected in patent US20020098221A1, “Oil-in-water emulsion formulation of insecticides” (priority 2000, published 2002).

Details: at room temperature

Structure (SMILES)	solubility in water
COCC(C)O (centres unmarked) [1-methoxy-2-propanol]	100%
OCc1ccccc1 [benzyl alcohol]	4%
O=C1CCCCC1 [cyclohexanone]	8%
C[S+](C)[O-] [dimethylsulfoxide]	100%
CN1CCCC1=O [n-methylpyrrolidone]	100%
